Data on three compounds can be found in patent US6297266A, “Thiazole derivatives” (Hoffmann-La Roche Inc., priority 1998, dated 2001).

This assay deals with T1, vitronectin receptor αvβ3 (Homo sapiens, UniProt P05106+P06756).
T1 construct: Human placenta is stored at -80° C. immediately after its excision; from tissue; host or cells: human placenta
Nature of the assay: inhibition of the binding of fibrinogen to vitronectin receptor αvβ3 (ELISA). The conditions noted are these: fibrinogen binding to immobilized αvβ3 from human placenta, pH 7.4, read-out: VNR IC50. On the procedure: The inhibition of the binding of adhesive proteins such as e.g. fibrinogen to vitronectin receptors (such as e.g. αvβ3, αvβ5, αvβ6, αvβ8, etc. or to the fibrinogen receptor (αIIbβ3) by compounds of formula (I) can be determined as described by L. Alig et al. (J.Med.Chem. 1992, 35, 4393-4407).
In detail thereto, the wells of microtiter plates (Nunc-Immunoplate MaxiSorp) were coated overnight at 4° C. with the vitronectin receptor αvβ3 (from human placenta, 100 μl/well) in a buffer system with 150 mmol/1 NaCl, 1 mmol/CaCl2, 1 mmol/1 MgCl2, 0.0005% Triton X-100 and 20 mmol/1 Tris HCl, pH 7.4. The non-specific binding sites were blocked by incubation with 3.5% bovine serum albumin (BSA from Fluka) at 20° C. for at least 1 h. Before the beginning of the test the plates were washed in each case once with 150 mmol/1 NaCl, 1 mmol/1 CaCl2, 1 mmol/1 MgCl2 and 20 mmol/1 Tris HCl, pH 7.4 (buffer A). The thus-coated plates can be stored for at least 2 months in the presence of 0.05% NaN3 (in buffer A) at 4° C. in a humidity chamber without loss of binding activity. Fibrinogen (IMCO, free from fibronectin) was diluted to 1.5 μg/ml in buffer A in the presence of 1% BSA. The wells coated with the receptor were incubated with fibrinogen (100 μl/well) overnight at room temperature in the absence of or in the presence of increasing concentrations of RGDS (as the reference substance, H-Arg-Gly-Asp-Ser-OH) or the compounds to be measured. Non-bound fibrinogen was removed by three-fold washing with buffer A, bound fibrinogen was detected by an enzyme linked immunosorbent assay (ELISA) procedure. Antibodies of rabbits directed against human fibrinogen (Dakopatts, Denmark), diluted in buffer A in the presence of 0.1% BSA, were added at room temperature for 1 h., followed by incubation with biotinylated antibodies directed against rabbit immunoglobulin (Amersham) for 30 min. […] After addition of the peroxidase substrate ABTS (2,2'-azino-bis(3-ethylbenzothiazoline-6-sulphonic acid), Boehringer Mannheim) the enzyme activity was measured with a multichannel photometer (UVmax, Molecular Devices). […]

T1 sequence (P06756 31-889 limits assumed): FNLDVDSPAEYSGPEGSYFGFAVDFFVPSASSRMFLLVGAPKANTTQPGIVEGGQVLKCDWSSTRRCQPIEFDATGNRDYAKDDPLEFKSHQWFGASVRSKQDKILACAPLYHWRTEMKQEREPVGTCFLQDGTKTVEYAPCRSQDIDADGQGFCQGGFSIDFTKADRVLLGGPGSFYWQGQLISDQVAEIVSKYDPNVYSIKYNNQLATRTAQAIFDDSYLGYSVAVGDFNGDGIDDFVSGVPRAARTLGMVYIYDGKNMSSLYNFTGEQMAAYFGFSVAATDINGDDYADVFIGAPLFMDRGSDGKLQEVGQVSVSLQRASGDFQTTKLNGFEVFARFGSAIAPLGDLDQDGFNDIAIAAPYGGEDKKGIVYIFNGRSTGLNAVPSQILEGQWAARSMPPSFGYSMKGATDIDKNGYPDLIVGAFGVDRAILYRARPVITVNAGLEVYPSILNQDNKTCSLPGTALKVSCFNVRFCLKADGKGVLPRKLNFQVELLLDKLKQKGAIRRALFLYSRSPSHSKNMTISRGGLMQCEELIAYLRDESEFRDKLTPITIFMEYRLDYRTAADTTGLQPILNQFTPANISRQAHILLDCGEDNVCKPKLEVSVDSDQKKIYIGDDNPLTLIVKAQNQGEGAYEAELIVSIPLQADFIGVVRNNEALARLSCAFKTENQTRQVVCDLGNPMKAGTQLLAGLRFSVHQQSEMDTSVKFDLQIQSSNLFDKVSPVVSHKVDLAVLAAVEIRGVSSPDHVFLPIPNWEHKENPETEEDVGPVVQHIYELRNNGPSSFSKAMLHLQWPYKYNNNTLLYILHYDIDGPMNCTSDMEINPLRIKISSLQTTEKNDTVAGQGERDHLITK
T1 sequence (P06756 891-1048 limits assumed): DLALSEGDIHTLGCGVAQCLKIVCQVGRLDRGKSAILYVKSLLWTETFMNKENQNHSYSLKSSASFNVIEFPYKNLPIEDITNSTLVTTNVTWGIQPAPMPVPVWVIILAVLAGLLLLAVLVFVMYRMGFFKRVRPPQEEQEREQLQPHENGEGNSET
T1 sequence (P05106 27-788): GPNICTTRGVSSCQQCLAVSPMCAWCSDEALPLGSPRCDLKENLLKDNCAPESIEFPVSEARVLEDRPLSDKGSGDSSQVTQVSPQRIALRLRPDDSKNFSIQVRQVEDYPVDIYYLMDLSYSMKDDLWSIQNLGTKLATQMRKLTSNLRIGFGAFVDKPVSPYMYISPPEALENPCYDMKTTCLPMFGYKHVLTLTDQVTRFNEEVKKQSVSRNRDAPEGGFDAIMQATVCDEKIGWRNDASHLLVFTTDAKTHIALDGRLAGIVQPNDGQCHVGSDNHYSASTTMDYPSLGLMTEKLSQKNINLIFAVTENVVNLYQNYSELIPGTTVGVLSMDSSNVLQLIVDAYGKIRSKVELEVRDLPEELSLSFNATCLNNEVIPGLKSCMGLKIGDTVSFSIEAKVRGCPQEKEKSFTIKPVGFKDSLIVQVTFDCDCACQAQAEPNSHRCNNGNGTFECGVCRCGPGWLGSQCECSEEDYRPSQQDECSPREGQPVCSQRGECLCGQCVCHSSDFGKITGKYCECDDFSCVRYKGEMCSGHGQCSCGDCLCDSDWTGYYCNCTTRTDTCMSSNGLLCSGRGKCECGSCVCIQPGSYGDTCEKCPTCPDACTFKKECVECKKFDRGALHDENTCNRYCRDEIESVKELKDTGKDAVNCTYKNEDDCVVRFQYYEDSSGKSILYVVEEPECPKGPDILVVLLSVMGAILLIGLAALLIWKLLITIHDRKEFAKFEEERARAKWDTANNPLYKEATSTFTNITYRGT

As to `O=C(O)COc1ccc(NC(=O)c2csc(NC(=O)NCc3ccccc3)n2)cc1C(=O)O` [5-{[2-(3-benzyl-ureido)-thiazole-4-carbonyl]-amino}-2-carboxymethoxy-benzoic acid], the 50% inhibitory concentration (IC50) was 1.3 nM.

For the compound `COc1cc(NC(=O)c2csc(NC(=O)NCc3ccccc3)n2)ccc1OCC(=O)O` [(4-{[2-(3-benzyl-ureido)-thiazole-4-carbonyl]-amino}-2-methoxy-phenoxy)-acetic acid], the IC50 was 0.2 nM.

With `O=C(O)COc1ccc(NC(=O)c2csc(NC(=O)NCc3ccccc3)n2)cc1` [[4-[[2-(3-benzyl-ureido)-thiazole-4-carbonyl]-amino]-phenoxy]-acetic acid], the IC50 amounted to 1 nM.
